Test results reported in EPA's ToxValDB 9.5 (doi:10.2903/j.efsa.2018.5130).
In brackets after ≈: the same amount, converted by molar mass.

Tests used:
Apis mellifera = conditions: acute, mortality
Folsomia candida = conditions: chronic/long-term; duration: 28 days; reproduction
Bibionidae = conditions: chronic/long-term; duration: 28 days; development
Neomysis kadiakensis = conditions: acute; duration: 96 hours; mortality
Mus musculus = conditions: acute, oral, mortality
Phasianus sp. = conditions: acute; duration: 14 days; oral; unspecified; mortality
Rattus norvegicus = conditions: developmental; development
Pleurozium sp. = conditions: acute; duration: 72 hours; growth
Tagia sp. = conditions: chronic/long-term; growth
Daphnia magna = conditions: chronic/long-term; duration: 21 days; reproduction
Aphidius rhopalosiphi = experiment: LR50; higher = less toxic; conditions: acute; mortality

SMILES: COP(=S)(OC)Oc1c(Cl)cc(C)cc1Cl [Tolclofos-methyl]
- LD50 (Apis mellifera; duration: 48 hours, oral, unspecified): > 264 µg/piece
- LD50 (Apis mellifera; duration: 72 hours, dermal): 456 µg/piece
- NOEC (Folsomia candida): 11 mg/kg
- NOEC (Bibionidae): 0.25 mg/L
- NOAEL (Anas platyrhynchos; reproductive, duration: 19 weeks): 77 mg/kg-day
- LD50 (Anas platyrhynchos; short-term, duration: 8 days, oral, feed, mortality): > 1620 mg/kg-day
- LC50 (Neomysis kadiakensis): 0.089 µg/mL (≈ 0.296 µM)
- LD50 (Mus musculus; F): 3600 mg/kg-day
- LD50 (Mus musculus; M): 3500 mg/kg-day
- LD50 (Phasianus sp.): > 5000 mg/kg-day
- NOAEL (Rattus norvegicus): 70.6 mg/kg-day
- NOEC (Pleurozium sp.): 0.14 mg/L
- NOEC (Tagia sp.): 60 mg/kg
- LC50 (Oncorhynchus mykiss; acute, duration: 96 hours, mortality): 0.69 µg/mL (≈ 2.29 µM)
- NOEC (Oncorhynchus mykiss; chronic/long-term, growth): 0.012 mg/L
- NOEC (Daphnia magna): 0.026 mg/L
- LR50 (Aphidius rhopalosiphi): 43.7 g/ha
